Results published in US8268882B2 (priority 2009, dated 2012).
Where two headings read alike, the source gives them in different places.

Tests used:
[1] = system: IL-2 production in Jurkat cells; experiment: cells; assay type: cell-based, human; details: for IC50: read-out: immunosuppression IL-2 (IC50)
[2] = system: Human T cell lymphoma (Jurkat) cells
[3] = in vitro; details: human

Row | Compound | inhibition of IL-2 production [1] | IC50 ([1]; Homo sapiens, Jurkat, 24 h) | cytotoxicity in MTT assay compared with triptolide [2] | cytotoxicity to Jurkat cells [2] | EC50 [3] | IC50 ([1]; Jurkat cells stimulated with PMA and PHA, 24 hrs, test compounds incubated in serum for 24 hrs) | EC50 ([2]; read-out: Viability/Cytotoxicity MTT (ED50), Jurkat cells, 24 h culture, test compounds incubated in serum for 24 hrs)
1 | CC(C)[C@]1(O)[C@H](Cl)[C@@H]2O[C@]23[C@@]2(OC(=O)O[C@H]12)[C@H](Cl)C[C@H]1C2=C(CC[C@@]13C)C(=O)OC2 [PG757] | inhibited IL-2 production | 9 nM | significantly more cytotoxic | cytotoxic to Jurkat cells | 32 nM | – | –
2 | CC(C)[C@]12O[C@H]1[C@@H]1O[C@]13[C@@]1(OC(=O)O[C@H]21)[C@H](Cl)C[C@H]1C2=C(CC[C@@]13C)C(=O)OC2 [PG762] | inhibited IL-2 production | 9 nM | comparable potency | cytotoxic to Jurkat cells | 60 nM | – | –
3 | CC(C)[C@]12O[C@H]1[C@@H]1O[C@]13[C@]1(O[C@H]1C[C@H]1C4=C(CC[C@@]13C)C(=O)OC4)[C@@H]2OC(=O)C(=O)O[C@@H]1[C@@]2(C(C)C)O[C@H]2[C@@H]2O[C@]23[C@]12O[C@H]2C[C@H]1C2=C(CC[C@@]13C)C(=O)OC2 [PG782] | inhibited IL-2 production | 2 nM | more potent than triptolide | cytotoxic to Jurkat cells | 53 nM | – | –
4 | triptolide [PG490, reference compound] | – | – | – | – | – | 4 nM | 60 nM
